What was measured:
Experiment in all cases: Inhibition Assay
Angiopoietin-1 receptor = Angiopoietin-1 receptor (Homo sapiens, UniProt Q02763)
Description: (§1) The kinase-catalyzed phosphorylation of poly(Glu4-Tyr) in the presence of varying concentrations of inhibitor was determined. The kinase were employed as fusion proteins of glutathion-S-transferase (GST) and the kinase domain. The relative amount of phosphorylated substrate was quantified by antiphosphotyrosine enzyme-linked immunosorbent assay.

[1] = target: Insulin-like growth factor 1 receptor (Homo sapiens, UniProt P08069)
Description: as §1

[2] = target: Vascular endothelial growth factor receptor 3 (Homo sapiens, UniProt P35916)
Vascular endothelial growth factor receptor 3, sequence (P35916 whole entry): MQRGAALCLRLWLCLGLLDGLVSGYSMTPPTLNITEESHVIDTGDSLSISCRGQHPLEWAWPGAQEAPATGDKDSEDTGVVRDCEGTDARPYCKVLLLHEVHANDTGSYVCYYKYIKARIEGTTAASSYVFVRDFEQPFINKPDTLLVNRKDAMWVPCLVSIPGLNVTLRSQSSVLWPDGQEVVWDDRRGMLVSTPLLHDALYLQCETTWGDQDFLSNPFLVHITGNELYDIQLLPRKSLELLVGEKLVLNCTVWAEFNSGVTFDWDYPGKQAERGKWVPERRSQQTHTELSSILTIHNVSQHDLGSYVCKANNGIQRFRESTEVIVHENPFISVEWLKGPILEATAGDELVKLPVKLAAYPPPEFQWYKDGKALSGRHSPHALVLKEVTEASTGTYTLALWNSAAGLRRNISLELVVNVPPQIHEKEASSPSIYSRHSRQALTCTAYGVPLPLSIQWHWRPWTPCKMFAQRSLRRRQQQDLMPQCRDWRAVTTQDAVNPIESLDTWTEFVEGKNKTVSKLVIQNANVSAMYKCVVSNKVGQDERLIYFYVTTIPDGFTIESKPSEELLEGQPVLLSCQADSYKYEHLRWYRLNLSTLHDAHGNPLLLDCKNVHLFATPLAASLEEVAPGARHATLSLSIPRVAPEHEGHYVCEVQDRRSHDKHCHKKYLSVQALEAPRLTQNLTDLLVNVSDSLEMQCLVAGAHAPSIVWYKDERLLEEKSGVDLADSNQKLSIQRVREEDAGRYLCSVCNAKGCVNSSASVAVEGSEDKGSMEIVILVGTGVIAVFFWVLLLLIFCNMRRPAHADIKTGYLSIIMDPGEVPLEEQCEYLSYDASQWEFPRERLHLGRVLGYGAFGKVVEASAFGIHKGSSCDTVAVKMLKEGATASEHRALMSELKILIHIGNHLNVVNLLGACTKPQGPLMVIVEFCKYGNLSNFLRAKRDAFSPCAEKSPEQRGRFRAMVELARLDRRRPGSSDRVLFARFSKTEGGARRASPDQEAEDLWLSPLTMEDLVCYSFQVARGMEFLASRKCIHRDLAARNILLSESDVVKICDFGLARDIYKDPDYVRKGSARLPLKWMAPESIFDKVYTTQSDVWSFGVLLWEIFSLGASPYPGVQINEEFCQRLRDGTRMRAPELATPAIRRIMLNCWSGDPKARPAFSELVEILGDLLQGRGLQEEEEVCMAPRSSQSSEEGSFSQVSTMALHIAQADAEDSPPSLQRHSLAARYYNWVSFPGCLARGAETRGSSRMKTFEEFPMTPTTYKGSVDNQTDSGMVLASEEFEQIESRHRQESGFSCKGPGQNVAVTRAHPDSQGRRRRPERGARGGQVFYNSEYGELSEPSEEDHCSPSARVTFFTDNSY
Description: as §1

[3] = target: Vascular endothelial growth factor receptor 2 (Homo sapiens, UniProt P35968)
Vascular endothelial growth factor receptor 2, sequence (P35968 whole entry): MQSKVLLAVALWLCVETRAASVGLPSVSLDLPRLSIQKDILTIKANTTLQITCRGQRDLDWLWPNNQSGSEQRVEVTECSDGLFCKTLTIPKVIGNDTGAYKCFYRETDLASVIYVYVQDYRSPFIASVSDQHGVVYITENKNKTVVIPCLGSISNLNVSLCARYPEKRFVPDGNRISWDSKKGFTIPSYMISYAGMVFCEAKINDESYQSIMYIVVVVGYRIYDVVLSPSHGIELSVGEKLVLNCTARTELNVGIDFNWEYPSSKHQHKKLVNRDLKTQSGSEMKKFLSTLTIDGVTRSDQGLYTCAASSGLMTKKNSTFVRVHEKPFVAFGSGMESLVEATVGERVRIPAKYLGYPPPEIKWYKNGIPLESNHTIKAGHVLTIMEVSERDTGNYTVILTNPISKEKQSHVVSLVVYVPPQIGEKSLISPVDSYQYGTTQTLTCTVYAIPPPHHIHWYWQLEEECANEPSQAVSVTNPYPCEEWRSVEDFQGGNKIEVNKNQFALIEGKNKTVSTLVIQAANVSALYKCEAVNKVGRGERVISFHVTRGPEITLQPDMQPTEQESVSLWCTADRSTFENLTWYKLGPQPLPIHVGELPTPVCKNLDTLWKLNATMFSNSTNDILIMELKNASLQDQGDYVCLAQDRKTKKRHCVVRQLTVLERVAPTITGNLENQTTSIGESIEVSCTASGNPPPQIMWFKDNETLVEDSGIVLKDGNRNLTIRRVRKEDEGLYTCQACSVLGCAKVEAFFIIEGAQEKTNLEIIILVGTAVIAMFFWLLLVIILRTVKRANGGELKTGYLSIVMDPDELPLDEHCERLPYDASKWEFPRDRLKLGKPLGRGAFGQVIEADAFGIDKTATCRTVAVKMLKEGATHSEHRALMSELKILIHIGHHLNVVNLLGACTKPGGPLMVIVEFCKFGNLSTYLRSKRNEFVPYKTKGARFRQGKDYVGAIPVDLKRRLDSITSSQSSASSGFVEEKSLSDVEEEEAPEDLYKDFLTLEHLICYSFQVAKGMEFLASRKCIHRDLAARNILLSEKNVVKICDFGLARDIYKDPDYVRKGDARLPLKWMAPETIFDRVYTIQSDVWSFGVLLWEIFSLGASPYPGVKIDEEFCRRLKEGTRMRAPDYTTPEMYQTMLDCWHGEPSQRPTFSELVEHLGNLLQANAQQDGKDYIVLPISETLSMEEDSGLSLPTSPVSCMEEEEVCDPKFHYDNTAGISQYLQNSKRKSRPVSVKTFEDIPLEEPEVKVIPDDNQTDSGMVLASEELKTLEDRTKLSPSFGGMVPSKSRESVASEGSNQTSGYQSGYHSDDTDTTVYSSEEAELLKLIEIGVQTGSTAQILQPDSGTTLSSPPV
Description: as §1

[4] = target: Epidermal growth factor receptor (Homo sapiens, UniProt P00533)
Epidermal growth factor receptor, sequence (P00533 whole entry): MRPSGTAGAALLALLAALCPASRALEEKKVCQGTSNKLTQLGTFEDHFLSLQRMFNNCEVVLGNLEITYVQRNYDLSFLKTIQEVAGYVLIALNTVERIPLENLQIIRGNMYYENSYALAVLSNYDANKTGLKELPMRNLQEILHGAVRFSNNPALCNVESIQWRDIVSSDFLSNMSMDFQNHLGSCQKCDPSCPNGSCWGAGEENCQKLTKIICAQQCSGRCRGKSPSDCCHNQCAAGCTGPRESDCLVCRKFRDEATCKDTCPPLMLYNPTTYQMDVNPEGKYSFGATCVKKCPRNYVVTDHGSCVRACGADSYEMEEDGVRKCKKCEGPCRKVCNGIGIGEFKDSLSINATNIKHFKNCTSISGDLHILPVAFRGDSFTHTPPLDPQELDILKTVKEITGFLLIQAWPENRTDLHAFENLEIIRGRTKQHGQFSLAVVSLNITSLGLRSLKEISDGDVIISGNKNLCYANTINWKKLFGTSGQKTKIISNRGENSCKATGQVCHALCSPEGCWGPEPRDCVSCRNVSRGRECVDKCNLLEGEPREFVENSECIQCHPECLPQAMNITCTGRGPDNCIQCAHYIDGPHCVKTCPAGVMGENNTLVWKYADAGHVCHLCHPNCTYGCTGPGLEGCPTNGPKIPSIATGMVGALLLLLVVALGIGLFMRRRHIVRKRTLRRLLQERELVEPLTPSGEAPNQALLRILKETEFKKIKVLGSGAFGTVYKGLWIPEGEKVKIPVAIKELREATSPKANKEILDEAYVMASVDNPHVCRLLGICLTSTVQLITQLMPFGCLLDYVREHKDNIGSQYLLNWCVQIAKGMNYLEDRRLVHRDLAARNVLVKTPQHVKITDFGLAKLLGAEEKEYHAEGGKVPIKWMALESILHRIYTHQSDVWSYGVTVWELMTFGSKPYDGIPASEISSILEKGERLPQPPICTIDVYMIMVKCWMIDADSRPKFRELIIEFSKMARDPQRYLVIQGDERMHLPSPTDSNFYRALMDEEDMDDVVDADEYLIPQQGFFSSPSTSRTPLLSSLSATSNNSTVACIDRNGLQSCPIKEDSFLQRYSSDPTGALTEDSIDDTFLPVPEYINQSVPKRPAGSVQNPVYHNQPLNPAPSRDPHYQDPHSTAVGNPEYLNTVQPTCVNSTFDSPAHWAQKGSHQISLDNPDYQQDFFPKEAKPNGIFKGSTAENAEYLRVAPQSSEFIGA
Description: as §1

[5] = target: Fibroblast growth factor receptor 1 (Homo sapiens, UniProt P11362)
Description: as §1

Angiopoietin-1 receptor, sequence (Q02763 whole entry, the tested form may be a part): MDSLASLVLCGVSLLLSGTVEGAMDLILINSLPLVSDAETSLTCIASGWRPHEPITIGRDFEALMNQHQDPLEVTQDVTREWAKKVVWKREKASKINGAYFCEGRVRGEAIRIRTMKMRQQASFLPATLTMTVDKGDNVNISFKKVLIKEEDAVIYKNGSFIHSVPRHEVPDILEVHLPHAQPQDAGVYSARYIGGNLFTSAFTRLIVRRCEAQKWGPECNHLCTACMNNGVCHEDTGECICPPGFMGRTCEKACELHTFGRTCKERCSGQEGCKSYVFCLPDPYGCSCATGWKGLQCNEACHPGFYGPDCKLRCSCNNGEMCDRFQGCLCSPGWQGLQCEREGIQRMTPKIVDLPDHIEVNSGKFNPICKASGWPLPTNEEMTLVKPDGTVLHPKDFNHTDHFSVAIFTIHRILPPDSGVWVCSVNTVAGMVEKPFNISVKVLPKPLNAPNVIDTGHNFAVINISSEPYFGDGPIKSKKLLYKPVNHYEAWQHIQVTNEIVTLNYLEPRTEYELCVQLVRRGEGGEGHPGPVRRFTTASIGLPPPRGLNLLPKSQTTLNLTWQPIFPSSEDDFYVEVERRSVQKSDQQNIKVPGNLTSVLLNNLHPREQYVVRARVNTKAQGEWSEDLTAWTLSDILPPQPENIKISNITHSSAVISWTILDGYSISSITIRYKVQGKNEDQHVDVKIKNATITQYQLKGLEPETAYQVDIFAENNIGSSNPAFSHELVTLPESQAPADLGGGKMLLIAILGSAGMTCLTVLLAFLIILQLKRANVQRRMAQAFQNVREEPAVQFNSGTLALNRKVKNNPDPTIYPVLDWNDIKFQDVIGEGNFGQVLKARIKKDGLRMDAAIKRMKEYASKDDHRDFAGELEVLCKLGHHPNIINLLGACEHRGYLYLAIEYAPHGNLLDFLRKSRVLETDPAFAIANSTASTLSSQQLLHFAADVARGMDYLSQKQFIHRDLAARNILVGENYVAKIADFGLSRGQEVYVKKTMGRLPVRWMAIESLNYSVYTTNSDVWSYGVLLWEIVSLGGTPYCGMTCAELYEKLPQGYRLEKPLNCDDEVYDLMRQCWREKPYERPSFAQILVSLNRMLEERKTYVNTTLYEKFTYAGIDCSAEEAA

Row | SMILES | IC50 (Angiopoietin-1 receptor) [µM] | IC50 [1] [µM] | IC50 [2] [µM] | IC50 [3] [µM] | IC50 [4] [µM] | IC50 [5] [µM]
1 | CCC1=C(CC(=O)O)c2cc(/C=C/C(=O)OC(C)(C)C)ccc2/C1=C\c1ccsc1 [Sulindac analogue, 23] | 5 | – | – | – | – | –
2 | CCC1=C(CC(=O)O)c2cc(F)ccc2/C1=C\c1ccc(OCc2ccccc2)cc1 [Sulindac analogue, 16] | 2 | – | – | – | – | –
3 | CC1=C(CC(=O)O)c2cc(I)ccc2/C1=C\c1cccc(OCc2ccccc2)c1 [Sulindac analogue, 22] | 7 | – | – | – | – | –
4 | CC1=C(CC(=O)O)c2ccc(Br)cc2/C1=C\c1ccoc1 [Sulindac analogue, 21] | 3 | 13 | 15 | 24 | 22 | –
5 | CCC1=C(CC(=O)O)c2cc(C#Cc3ccccc3)ccc2/C1=C\c1ccsc1 [Sulindac analogue, 24] | 5 | – | – | – | – | –
6 | CCC1=C(CC(=O)O)c2cc(F)ccc2/C1=C\c1ccoc1 [Sulindac analogue, 15] | 1 | – | – | 5 | 0.9 | 3
7 | CC1=C(CC(=O)O)c2cc(F)ccc2/C1=C\c1cccc(OCc2ccccc2)c1 [Sulindac analogue, 11] | 11 | – | – | – | – | –
8 | CC1=C(CC(=O)O)c2cc(Br)ccc2/C1=C\c1ccccc1 [Sulindac analogue, 18] | 1 | – | – | – | – | –

Now from value to compound:

Row | IC50 (Angiopoietin-1 receptor) [µM] | IC50 [1] [µM] | IC50 [2] [µM] | IC50 [3] [µM] | IC50 [4] [µM] | IC50 [5] [µM] | SMILES
9 | 5 | – | – | – | – | – | CC1=C(CC(=O)O)c2cc(F)ccc2/C1=C\c1cccs1 [Sulindac analogue, 12]
10 | 11 | 71 | – | – | – | – | CC1=C(CC(=O)O)c2ccc(Br)cc2/C1=C/c1ccsc1 [Sulindac analogue, 20]
11 | 0.6 | – | 15 | 14 | – | – | CC1=C(CC(=O)O)c2cc(F)ccc2/C1=C\c1ccsc1 [Sulindac analogue, 13]
12 | 5 | – | – | – | – | – | CC1=C(CC(=O)O)c2cc(F)ccc2/C1=C\c1ccc(F)c(F)c1 [Sulindac analogue, 10]
13 | – | – | – | 8 | – | – | CC1=C(CC(=O)O)c2cc(F)ccc2/C1=C\c1ccoc1 [Sulindac analogue, 14]
14 | 1 | 4 | 4 | 3 | 12 | 23 | CC1=C(CC(=O)O)c2ccc(Br)cc2/C1=C\c1ccsc1 [Sulindac analogue, 19]
15 | 5 | 7 | 14 | – | 8 | – | CC1=C(CC(=O)O)c2cc(Cl)ccc2/C1=C\c1ccoc1 [Sulindac analogue, 17]
